What was measured:
[1] = target: Calcium/calmodulin-dependent protein kinase type II subunit gamma (Homo sapiens) (UniProt Q13555); assay: Inhibition of human CAMK2g at 1.82 nM by HotSpot assay relative to control
[2] = target: Tyrosine-protein kinase Fgr (Homo sapiens) (UniProt P09769); assay: Inhibition of human FGR at 1.82 nM by HotSpot assay relative to control
[3] = target: Mitogen-activated protein kinase kinase kinase 10 (Homo sapiens) (UniProt Q02779); assay: Inhibition of human MAP3K10 at 1.82 nM by HotSpot assay relative to control
[4] = target: Serine/threonine-protein kinase PLK3 (Homo sapiens) (UniProt Q9H4B4); assay: Inhibition of human PLK3 at 1.82 nM by HotSpot assay relative to control
[5] = target: T1, Serine/threonine-protein kinase TBK1 (Homo sapiens) (UniProt Q9UHD2); assay: Inhibition of human TBK1 at 1.82 nM by HotSpot assay relative to control
T1 sequence (whole entry): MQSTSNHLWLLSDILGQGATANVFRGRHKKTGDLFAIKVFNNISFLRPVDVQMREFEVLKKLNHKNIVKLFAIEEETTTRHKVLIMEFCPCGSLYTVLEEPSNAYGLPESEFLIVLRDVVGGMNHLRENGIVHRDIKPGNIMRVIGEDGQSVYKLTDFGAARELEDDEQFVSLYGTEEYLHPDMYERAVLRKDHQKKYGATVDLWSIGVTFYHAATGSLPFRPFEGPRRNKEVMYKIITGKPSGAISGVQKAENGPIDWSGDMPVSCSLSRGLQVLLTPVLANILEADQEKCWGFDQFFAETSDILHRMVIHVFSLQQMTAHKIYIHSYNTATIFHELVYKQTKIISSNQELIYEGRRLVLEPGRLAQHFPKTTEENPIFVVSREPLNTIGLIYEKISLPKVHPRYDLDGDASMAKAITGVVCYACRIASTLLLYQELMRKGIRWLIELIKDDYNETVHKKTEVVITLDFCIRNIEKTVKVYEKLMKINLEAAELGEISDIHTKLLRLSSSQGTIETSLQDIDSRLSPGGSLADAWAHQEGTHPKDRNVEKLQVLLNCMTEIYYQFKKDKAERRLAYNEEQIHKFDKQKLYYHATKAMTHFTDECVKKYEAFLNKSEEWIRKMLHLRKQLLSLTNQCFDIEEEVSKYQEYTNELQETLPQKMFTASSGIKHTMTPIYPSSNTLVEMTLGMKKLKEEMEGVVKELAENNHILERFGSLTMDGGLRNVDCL

[6] = target: Calcium/calmodulin-dependent protein kinase type II subunit gamma (Homo sapiens) (UniProt Q13555); assay: Inhibition of human CAMK2g at 18.6 nM by HotSpot assay relative to control
[7] = target: G protein-coupled receptor kinase 6 (Homo sapiens) (UniProt P43250); assay: Inhibition of human GRK6 at 18.6 nM by HotSpot assay relative to control
[8] = target: Mitogen-activated protein kinase 9 (Homo sapiens) (UniProt P45984); assay: Inhibition of human JNK2 at 18.6 nM by HotSpot assay relative to control
[9] = target: STE20-like serine/threonine-protein kinase (Homo sapiens) (UniProt Q9H2G2); assay: Inhibition of human STK2 at 18.6 nM by HotSpot assay relative to control
[10] = target: T2, Testis-specific serine/threonine-protein kinase 1 (Homo sapiens) (UniProt Q9BXA7); assay: Inhibition of human TSSK1 at 18.6 nM by HotSpot assay relative to control
T2 sequence (whole entry): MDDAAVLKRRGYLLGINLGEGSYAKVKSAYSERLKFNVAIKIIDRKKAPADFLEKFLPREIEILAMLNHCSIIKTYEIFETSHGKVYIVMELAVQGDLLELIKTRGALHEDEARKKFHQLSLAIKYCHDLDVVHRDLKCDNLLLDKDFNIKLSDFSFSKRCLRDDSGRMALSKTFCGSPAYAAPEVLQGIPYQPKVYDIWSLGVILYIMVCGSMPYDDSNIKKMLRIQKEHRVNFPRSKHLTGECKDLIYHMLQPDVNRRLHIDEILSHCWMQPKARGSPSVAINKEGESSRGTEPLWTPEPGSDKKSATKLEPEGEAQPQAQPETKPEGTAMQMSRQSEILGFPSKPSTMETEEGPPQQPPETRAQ

[11] = target: T3, Serine/threonine-protein kinase ULK2 (Homo sapiens) (UniProt Q8IYT8); assay: Inhibition of human ULK2 at 18.6 nM by HotSpot assay relative to control
T3 sequence (whole entry): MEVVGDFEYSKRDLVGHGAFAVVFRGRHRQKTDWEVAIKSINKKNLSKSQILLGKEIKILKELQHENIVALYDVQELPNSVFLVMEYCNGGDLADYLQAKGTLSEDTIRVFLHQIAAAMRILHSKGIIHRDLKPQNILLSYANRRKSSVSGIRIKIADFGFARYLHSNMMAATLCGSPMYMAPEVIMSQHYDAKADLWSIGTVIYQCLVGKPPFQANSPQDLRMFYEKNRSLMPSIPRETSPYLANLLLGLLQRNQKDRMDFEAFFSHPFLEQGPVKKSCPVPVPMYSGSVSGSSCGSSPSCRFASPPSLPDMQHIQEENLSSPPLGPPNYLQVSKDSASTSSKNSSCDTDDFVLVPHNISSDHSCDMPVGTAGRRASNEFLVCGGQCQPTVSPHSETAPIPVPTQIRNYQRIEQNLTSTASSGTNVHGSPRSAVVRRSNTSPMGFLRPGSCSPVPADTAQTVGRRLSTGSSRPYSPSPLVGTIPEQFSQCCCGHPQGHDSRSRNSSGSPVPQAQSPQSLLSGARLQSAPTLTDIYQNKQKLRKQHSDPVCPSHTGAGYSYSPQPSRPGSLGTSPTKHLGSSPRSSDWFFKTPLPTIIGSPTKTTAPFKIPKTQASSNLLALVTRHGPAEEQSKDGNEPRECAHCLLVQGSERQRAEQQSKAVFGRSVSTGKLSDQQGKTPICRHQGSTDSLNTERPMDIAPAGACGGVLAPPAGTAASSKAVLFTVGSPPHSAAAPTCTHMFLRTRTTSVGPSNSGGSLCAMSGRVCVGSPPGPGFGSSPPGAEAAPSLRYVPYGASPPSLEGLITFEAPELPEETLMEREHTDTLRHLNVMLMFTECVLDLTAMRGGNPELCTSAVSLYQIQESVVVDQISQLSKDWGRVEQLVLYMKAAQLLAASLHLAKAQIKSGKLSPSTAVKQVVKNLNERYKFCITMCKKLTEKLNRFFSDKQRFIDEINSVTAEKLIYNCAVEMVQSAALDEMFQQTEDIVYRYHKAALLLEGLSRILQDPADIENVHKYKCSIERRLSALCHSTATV

Calcium/calmodulin-dependent protein kinase type II subunit gamma (Homo sapiens), sequence (Q13555 whole entry): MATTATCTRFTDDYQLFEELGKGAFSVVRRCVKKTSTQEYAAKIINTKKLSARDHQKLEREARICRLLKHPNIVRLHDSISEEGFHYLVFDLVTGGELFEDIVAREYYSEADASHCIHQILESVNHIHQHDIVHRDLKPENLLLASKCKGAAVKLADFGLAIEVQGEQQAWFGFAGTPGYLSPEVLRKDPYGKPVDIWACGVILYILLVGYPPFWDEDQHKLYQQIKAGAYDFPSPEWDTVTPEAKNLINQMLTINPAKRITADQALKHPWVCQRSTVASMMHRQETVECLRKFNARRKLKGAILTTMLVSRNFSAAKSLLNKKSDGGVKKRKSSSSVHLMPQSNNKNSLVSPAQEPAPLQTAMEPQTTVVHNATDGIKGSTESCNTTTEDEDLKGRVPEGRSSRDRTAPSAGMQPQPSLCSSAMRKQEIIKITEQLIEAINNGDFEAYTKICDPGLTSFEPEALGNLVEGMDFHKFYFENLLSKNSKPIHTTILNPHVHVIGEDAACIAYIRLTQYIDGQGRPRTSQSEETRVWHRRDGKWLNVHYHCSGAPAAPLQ
Tyrosine-protein kinase Fgr (Homo sapiens), sequence (P09769 2-529 limits assumed): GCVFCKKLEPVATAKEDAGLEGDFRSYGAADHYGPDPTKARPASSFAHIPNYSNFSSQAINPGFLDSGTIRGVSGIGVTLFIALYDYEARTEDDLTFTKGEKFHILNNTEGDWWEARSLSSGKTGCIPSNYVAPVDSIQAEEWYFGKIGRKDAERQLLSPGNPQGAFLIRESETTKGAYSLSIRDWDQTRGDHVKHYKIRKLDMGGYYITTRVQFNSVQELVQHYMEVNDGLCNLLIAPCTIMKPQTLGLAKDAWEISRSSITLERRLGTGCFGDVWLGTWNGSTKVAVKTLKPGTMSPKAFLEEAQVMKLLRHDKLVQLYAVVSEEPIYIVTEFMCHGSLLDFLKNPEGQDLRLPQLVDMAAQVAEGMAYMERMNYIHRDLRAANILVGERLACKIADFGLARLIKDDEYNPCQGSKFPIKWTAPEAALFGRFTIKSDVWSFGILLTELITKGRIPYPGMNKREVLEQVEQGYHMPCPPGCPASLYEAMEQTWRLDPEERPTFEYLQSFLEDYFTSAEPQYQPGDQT
Serine/threonine-protein kinase PLK3 (Homo sapiens), sequence (Q9H4B4 whole entry, looked up): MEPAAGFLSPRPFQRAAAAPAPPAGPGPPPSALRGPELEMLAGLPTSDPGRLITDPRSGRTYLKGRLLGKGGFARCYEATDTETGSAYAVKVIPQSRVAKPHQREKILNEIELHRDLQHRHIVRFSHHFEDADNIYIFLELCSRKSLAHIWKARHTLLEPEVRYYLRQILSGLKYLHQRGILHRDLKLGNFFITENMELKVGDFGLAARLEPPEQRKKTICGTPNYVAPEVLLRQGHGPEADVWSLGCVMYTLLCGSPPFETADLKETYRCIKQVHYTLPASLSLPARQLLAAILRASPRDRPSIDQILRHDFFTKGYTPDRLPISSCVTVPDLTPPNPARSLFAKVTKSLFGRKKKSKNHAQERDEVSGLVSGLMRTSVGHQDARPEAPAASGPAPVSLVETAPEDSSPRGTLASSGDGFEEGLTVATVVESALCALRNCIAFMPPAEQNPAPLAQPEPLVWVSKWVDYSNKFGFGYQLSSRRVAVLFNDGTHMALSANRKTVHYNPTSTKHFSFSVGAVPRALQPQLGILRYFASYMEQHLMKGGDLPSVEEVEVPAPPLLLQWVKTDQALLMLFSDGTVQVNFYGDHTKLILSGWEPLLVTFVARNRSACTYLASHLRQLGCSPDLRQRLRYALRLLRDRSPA
Mitogen-activated protein kinase kinase kinase 10 (Homo sapiens), sequence (Q02779 whole entry, looked up): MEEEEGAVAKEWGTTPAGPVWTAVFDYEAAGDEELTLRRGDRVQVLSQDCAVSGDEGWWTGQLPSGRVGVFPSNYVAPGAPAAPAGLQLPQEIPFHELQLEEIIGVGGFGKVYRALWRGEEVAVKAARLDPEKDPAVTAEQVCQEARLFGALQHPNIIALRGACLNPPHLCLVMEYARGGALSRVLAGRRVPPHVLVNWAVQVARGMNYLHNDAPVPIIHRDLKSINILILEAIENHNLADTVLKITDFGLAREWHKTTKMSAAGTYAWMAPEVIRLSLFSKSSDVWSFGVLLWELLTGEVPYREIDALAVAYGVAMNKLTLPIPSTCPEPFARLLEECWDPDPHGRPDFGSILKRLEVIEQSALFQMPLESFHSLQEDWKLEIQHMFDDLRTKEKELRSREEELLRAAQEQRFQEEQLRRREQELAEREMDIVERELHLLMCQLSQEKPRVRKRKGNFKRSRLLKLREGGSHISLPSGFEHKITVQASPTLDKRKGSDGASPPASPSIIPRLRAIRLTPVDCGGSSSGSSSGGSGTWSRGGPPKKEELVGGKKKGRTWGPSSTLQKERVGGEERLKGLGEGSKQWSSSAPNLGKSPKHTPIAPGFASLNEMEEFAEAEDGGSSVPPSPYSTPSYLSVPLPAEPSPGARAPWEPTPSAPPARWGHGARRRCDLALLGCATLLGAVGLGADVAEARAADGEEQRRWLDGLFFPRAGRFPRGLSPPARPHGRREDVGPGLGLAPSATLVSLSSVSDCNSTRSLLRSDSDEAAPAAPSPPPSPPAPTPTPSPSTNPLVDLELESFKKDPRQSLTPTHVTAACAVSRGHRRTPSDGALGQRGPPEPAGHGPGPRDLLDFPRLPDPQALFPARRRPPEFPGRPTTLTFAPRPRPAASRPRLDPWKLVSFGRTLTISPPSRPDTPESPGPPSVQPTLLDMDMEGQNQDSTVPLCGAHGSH
G protein-coupled receptor kinase 6 (Homo sapiens), sequence (P43250 whole entry, looked up): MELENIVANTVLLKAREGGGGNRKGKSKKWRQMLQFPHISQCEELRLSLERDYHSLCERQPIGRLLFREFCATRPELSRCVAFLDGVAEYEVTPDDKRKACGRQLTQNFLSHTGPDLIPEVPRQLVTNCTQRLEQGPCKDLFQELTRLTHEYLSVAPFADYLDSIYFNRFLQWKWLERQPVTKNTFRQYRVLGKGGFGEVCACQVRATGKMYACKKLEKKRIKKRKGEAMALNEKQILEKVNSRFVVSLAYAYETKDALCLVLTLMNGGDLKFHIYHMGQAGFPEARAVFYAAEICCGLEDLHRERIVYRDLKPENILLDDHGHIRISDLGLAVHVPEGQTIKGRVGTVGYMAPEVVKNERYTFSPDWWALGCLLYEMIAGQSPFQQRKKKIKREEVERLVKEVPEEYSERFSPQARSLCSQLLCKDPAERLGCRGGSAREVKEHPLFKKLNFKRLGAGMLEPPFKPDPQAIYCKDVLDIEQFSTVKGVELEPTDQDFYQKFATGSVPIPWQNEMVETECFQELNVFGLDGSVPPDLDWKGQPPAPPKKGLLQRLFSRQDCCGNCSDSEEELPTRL
STE20-like serine/threonine-protein kinase (Homo sapiens), sequence (Q9H2G2 whole entry, looked up): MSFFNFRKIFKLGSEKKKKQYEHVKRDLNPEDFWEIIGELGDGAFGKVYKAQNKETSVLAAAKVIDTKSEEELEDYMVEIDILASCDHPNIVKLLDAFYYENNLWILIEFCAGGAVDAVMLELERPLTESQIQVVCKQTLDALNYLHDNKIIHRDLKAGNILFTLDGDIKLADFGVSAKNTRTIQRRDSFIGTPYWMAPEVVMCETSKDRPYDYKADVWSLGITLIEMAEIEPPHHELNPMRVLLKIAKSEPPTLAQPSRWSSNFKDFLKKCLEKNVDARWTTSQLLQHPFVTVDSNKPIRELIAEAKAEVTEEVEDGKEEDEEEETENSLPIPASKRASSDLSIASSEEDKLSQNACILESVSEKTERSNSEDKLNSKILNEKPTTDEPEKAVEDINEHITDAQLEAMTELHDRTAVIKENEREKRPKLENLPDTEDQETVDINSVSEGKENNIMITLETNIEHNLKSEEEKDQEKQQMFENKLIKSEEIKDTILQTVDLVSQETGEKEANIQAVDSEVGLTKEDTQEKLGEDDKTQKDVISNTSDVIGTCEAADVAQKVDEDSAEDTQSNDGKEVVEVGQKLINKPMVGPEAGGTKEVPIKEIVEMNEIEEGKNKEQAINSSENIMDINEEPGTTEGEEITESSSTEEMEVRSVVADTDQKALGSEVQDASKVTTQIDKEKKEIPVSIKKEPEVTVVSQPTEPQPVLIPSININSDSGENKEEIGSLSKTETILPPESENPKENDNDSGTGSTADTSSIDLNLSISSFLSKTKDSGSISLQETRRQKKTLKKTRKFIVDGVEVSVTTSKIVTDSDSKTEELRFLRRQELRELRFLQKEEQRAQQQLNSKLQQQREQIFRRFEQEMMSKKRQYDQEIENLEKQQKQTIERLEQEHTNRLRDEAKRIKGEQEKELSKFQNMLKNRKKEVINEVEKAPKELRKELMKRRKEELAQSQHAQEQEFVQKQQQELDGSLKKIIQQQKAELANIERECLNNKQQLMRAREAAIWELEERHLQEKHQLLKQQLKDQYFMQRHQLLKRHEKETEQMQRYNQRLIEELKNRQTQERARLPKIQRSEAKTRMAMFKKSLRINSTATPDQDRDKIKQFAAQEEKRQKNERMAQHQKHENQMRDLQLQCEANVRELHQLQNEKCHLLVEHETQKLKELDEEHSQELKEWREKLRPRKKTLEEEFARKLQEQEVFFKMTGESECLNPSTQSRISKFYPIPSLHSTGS
Mitogen-activated protein kinase 9 (Homo sapiens), sequence (P45984 whole entry, looked up): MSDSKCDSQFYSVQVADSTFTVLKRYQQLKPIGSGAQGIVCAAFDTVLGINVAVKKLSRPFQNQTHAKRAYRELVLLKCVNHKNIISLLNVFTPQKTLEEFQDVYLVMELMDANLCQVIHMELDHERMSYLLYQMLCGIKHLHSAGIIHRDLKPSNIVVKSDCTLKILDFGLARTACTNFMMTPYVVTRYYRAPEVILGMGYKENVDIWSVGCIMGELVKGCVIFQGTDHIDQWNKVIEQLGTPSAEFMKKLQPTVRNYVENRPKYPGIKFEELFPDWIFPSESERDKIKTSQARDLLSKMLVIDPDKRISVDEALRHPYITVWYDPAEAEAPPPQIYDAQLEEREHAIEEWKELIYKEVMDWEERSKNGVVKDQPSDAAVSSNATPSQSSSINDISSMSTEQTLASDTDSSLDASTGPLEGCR

SMILES | inhibition [1] [%] | inhibition [2] [%] | inhibition [3] [%] | inhibition [4] [%] | inhibition [5] [%] | inhibition [6] [%] | inhibition [7] [%] | inhibition [8] [%] | inhibition [9] [%] | inhibition [10] [%] | inhibition [11] [%]
C[C@@]1(C(=O)Nc2ccc(F)nc2)CCCN1c1nc(Nc2cc(C3CC3)n[nH]2)c2cccn2n1 | 4.1 | -3.39 | -1.81 | 2.72 | 7.68 | – | – | – | – | – | –
C[C@]1(O)C[C@@H](c2nc(-c3ccc4ccc(-c5ccccc5)nc4c3)c3c(N)nccn32)C1 | – | – | – | – | – | 2.76 | 3.48 | -2.37 | 9.03 | -3.16 | 2.12
